Experimental findings from patent publication US11608335B2, “Somatostatin modulators and uses thereof” (CRINETICS PHARMACEUTICALS, INC., priority 2018, dated 2023) are described below.

Each structure is given as a SMILES string.

human somatostatin receptor subtype 5, sequence (P35346 whole entry): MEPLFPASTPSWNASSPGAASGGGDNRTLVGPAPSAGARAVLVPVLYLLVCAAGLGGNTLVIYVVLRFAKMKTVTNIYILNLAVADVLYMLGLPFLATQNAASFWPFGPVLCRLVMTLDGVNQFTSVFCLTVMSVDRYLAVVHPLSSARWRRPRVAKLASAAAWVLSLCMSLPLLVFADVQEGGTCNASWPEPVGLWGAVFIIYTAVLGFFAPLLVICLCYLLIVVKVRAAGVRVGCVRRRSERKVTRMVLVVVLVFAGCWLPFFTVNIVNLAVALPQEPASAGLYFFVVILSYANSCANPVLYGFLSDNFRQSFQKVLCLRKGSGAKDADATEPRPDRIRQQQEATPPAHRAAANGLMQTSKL

The first assay has as its target human somatostatin receptor subtype 5 (Homo sapiens, UniProt P35346). In words: cAMP assay for SST5R (inhibition of cAMP via human SST5 receptor).
Conditions: not given
(In general: Changes in cAMP serve as a functional read-out for many G protein-coupled receptors.)
As to `Cc1ccc(F)c2[nH]c(-c3cncc(-c4ccnc(C(N)=O)c4)c3N3CC[C@H](N)C3)nc12` [Compound 2-107, 4-[(3S)-3-aminopyrrolidin-1-yl]-5-(7-fluoro-4-methyl-1H-1,3-benzodiazol-2-yl)-[3,4′-bipyridine]-2′-carboxamide], the EC50 is above 1000 nM. Still for that read-out and setting: for `Cn1c(-c2cncc(-c3cc(F)cc(C#N)c3)c2N2CC[C@H](N)C2)nc2ccccc21` [Compound 2-110, 3-{4-[(3S)-3-aminopyrrolidin-1-yl]-5-(1-methyl-1H-1,3-benzodiazol-2-yl)pyridin-3-yl}-5-fluorobenzonitrile] the value was 10 to 100 nM.

In the case of `CCCn1c(-c2cncc(-c3cc(F)cc(C#N)c3)c2N2CC[C@H](N)C2)nc2ccccc21` [Compound 2-111, 3-{4-[(3S)-3-aminopyrrolidin-1-yl]-5-(1-propyl-1H-1,3-benzodiazol-2-yl)pyridin-3-yl}-5-fluorobenzonitrile], the EC50 fell in the range of 10 to 100 nM. `COCCn1c(-c2cncc(-c3cc(F)cc(C#N)c3)c2N2CC[C@H](N)C2)nc2ccccc21` [Compound 2-112, 3-{4-[(3S)-3-aminopyrrolidin-1-yl]-5-[1-(2-methoxyethyl)-1H-1,3-benzodiazol-2-yl]pyridin-3-yl}-5-fluorobenzonitrile] registered an EC50 of 100 to 1000 nM. `N#CCn1c(-c2cncc(-c3cc(F)cc(C#N)c3)c2N2CC[C@H](N)C2)nc2ccccc21` [Compound 2-113, 3-{4-[(3S)-3-aminopyrrolidin-1-yl]-5-[1-(cyanomethyl)-1H-1,3-benzodiazol-2-yl]pyridin-3-yl}-5-fluorobenzonitrile] returned an EC50 of 100 to 1000 nM. In turn, `Cc1cccc2c1nc(-c1cncc(-c3cc(F)cc(C#N)c3)c1N1CC[C@H](N)C1)n2C` [Compound 2-114, 3-{4-[(3S)-3-aminopyrrolidin-1-yl]-5-(1,4-dimethyl-1H-1,3-benzodiazol-2-yl)pyridin-3-yl}-5-fluorobenzonitrile] registered an EC50 below 10 nM.

Consider `Cn1c(-c2cncc(-c3cc(F)cc(C#N)c3)c2N2CC[C@H](N)C2)nc2cccc(Cl)c21` [Compound 2-117, 3-{4-[(3S)-3-aminopyrrolidin-1-yl]-5-(7-chloro-1-methyl-1H-1,3-benzodiazol-2-yl)pyridin-3-yl}-5-fluorobenzonitrile], for which the EC50 lay in the range of 10 to 100 nM. In the case of `Cc1cccc2nc(-c3cncc(-c4cc(F)cc(C(N)=O)c4)c3N3CCC(C)(N)C3)[nH]c12` (centres unmarked) [Compound 2-118, 3-[4-(3-amino-3-methylpyrrolidin-1-yl)-5-(4-methyl-1H-1,3-benzodiazol-2-yl)pyridin-3-yl]-5-fluorobenzamide], the EC50 was below 10 nM. Still for that read-out and setting: for `Cc1ccnc2nc(-c3cncc(-c4ccc(F)c(C#N)c4)c3N3CCC(C)(N)C3)[nH]c12` (centres unmarked) [Compound 2-119, 5-[4-(3-amino-3-methylpyrrolidin-1-yl)-5-{7-methyl-1H-imidazo[4,5-b]pyridin-2-yl}pyridin-3-yl]-2-fluorobenzonitrile] the value was below 10 nM; for `Cc1cccc2nc(-c3cncc(-c4cc(F)c(F)c(C(=O)O)c4)c3N3CCC(C)(N)C3)[nH]c12` (centres unmarked) [Compound 2-126, 5-[4-(3-amino-3-methylpyrrolidin-1-yl)-5-(4-methyl-1H-1,3-benzodiazol-2-yl)pyridin-3-yl]-2,3-difluorobenzoic acid], above 1000 nM. The same measure, in the same setting: for `Cc1cccc2[nH]c(-c3cncc(-c4cc(F)cc(C#N)c4)c3N3CC[C@H](N)C3)cc12` [Compound 2-129, 3-{4-[(3S)-3-aminopyrrolidin-1-yl]-5-(4-methyl-1H-indol-2-yl)pyridin-3-yl}-5-fluorobenzonitrile] the value was 10 to 100 nM. `Cc1cc(-c2cncc(-c3nc4cccc(F)c4[nH]3)c2N2CC[C@H](N)C2)cc(N)n1` [Compound 2-130, 4-[(3S)-3-aminopyrrolidin-1-yl]-5-(4-fluoro-1H-1,3-benzodiazol-2-yl)-6′-methyl-[3,4′-bipyridin]-2′-amine] gave an EC50 of 100 to 1000 nM. Same read-out and setting: for `Cn1c(-c2cncc(-c3ccc(F)c(C#N)c3)c2N2CC[C@H](N)C2)nc2cccc(Cl)c21` [Compound 2-133, 5-{4-[(3S)-3-aminopyrrolidin-1-yl]-5-(7-chloro-1-methyl-1H-1,3-benzodiazol-2-yl)pyridin-3-yl}-2-fluorobenzonitrile] the value was below 10 nM; for `Cc1cccc2nc(-c3cncc(-c4ccc(F)c(C#N)c4)c3N3CC[C@H](N)C3)n(C)c12` [Compound 2-134, 5-{4-[(3S)-3-aminopyrrolidin-1-yl]-5-(1,7-dimethyl-1H-1,3-benzodiazol-2-yl)pyridin-3-yl}-2-fluorobenzonitrile], below 10 nM; for `Cc1cccc2nc(-c3cncc(-c4cc(F)cc(C#N)c4)c3N3CC[C@](N)(CO)C3)[nH]c12` [Compound 2-136, 3-{4-[(3R)-3-amino-3-(hydroxymethyl)pyrrolidin-1-yl]-5-(4-methyl-1H-1,3-benzodiazol-2-yl)pyridin-3-yl}-5-fluorobenzonitrile], 10 to 100 nM. Compound `Cc1cccc2cc(-c3cncc(-c4cc(F)cc(C#N)c4)c3N3CC[C@H](N)C3)[nH]c12` [Compound 2-137, 3-{4[(3S)-3-aminopyrrolidin-1-yl]-5-(7-methyl-1H-indol-2-yl)pyridin-3-yl}-5-fluorobenzonitrile] showed an EC50 of 10 to 100 nM.

`Cc1cccc2nc(-c3cncc(-c4cccc(C(N)=O)c4F)c3N3CCC(C)(N)C3)[nH]c12` (centres unmarked) [Compound 2-138, 3-[4-(3-amino-3-methylpyrrolidin-1-yl)-5-(4-methyl-1H-1,3-benzodiazol-2-yl)pyridin-3-yl]-2-fluorobenzamide] showed an EC50 below 10 nM. Turning to `Cn1c(-c2cncc(-c3ccnc(C#N)c3)c2N2CC[C@](C)(N)C2)nc2c(F)cccc21` [Compound 2-150, 4-[(3S)-3-amino-3-methylpyrrolidin-1-yl]-5-(4-fluoro-1-methyl-1H-1,3-benzodiazol-2-yl)-[3,4′-bipyridine]-2′-carbonitrile], the EC50 is below 10 nM. The same measure, in the same setting: for `Cn1c(-c2cncc(-c3ccnc(C#N)c3)c2N2CC[C@](C)(N)C2)nc2c(Cl)cccc21` [Compound 2-151, 4-[(3S)-3-amino-3-methylpyrrolidin-1-yl]-5-(4-chloro-1-methyl-1H-1,3-benzodiazol-2-yl)-[3,4′-bipyridine]-2′-carbonitrile] the value was below 10 nM. Same read-out and setting: for `Cc1cccc2c1nc(-c1cncc(-c3ccnc(C#N)c3)c1N1CC[C@](C)(N)C1)n2C` [Compound 2-152, 4-[(3S)-3-amino-3-methylpyrrolidin-1-yl]-5-(1,4-dimethyl-1H-1,3-benzodiazol-2-yl)-[3,4′-bipyridine]-2′-carbonitrile] the value was below 10 nM; for `Cn1c(-c2cncc(-c3cccc(C#N)c3)c2N2CC[C@](C)(N)C2)nc2c(F)cccc21` [Compound 2-153, 3-{4-[(3S)-3-amino-3-methylpyrrolidin-1-yl]-5-(4-fluoro-1-methyl-1H-1,3-benzodiazol-2-yl)pyridin-3-yl}benzonitrile], below 10 nM. Compound `Cc1cccc2[nH]c(-c3cncc(-c4ccnc(C(N)=O)c4)c3N3CC[C@](C)(N)C3)nc12` [Compound 2-156, 4-[(3S)-3-amino-3-methylpyrrolidin-1-yl]-5-(4-methyl-1H-1,3-benzodiazol-2-yl)-[3,4′-bipyridine]-2′-carboxamide] yielded an EC50 below 10 nM. As to `N#Cc1cc(-c2cncc(-c3nc4cccc(C#N)c4[nH]3)c2N2CC[C@H](N)C2)ccc1F` [Compound 2-158, 2-{4-[(3S)-3-aminopyrrolidin-1-yl]-5-(3-cyano-4-fluorophenyl)pyridin-3-yl}-1H-1,3-benzodiazole-4-carbonitrile], the EC50 is below 10 nM. `Cc1nccc2nc(-c3cncc(-c4ccc(F)c(C#N)c4)c3N3CCC(C)(N)C3)[nH]c12` (centres unmarked) [Compound 2-159, 5-[4-(3-amino-3-methylpyrrolidin-1-yl)-5-{4-methyl-3H-imidazo[4,5-c]pyridin-2-yl}pyridin-3-yl]-2-fluorobenzonitrile] yielded an EC50 below 10 nM. Turning to `CC1(N)CCN(c2c(-c3ccnc(C#N)c3)cncc2-c2nc3cccc(C#N)c3[nH]2)C1` (centres unmarked) [Compound 2-160, 4-(3-amino-3-methylpyrrolidin-1-yl)-5-(4-cyano-1H-1,3-benzodiazol-2-yl)-[3,4′-bipyridine]-2′-carbonitrile], the EC50 is below 10 nM. For the compound `N#Cc1cc(-c2cncc(-c3nc4cccc(Cl)c4[nH]3)c2N2CC[C@H](N)C2)ccn1` [Compound 2-161, 4-[(3S)-3-aminopyrrolidin-1-yl]-5-(4-chloro-1H-1,3-benzodiazol-2-yl)-[3,4′-bipyridine]-2′-carbonitrile], the EC50 was below 10 nM. `C[C@]1(N)CCN(c2c(-c3ccc(F)c(C#N)c3)cncc2-c2nc3ncc(F)cc3[nH]2)C1` [Compound 2-168, 5-{4-[(3S)-3-amino-3-methylpyrrolidin-1-yl]-5-{6-fluoro-1H-imidazo[4,5-b]pyridin-2-yl}pyridin-3-yl}-2-fluorobenzonitrile] gave an EC50 below 10 nM. Regarding `Cc1ccnc2[nH]c(-c3cncc(-c4cc(F)cc(C(N)=O)c4)c3N3CC[C@](C)(N)C3)nc12` [Compound 2-169, 3-{4-[(3S)-3-amino-3-methylpyrrolidin-1-yl]-5-{7-methyl-1H-imidazo[4,5-b]pyridin-2-yl}pyridin-3-yl}-5-fluorobenzamide], the EC50 is below 10 nM.

Regarding `Cc1cc(C)c2nc(-c3cncc(-c4cccc(C#N)c4)c3N3CC[C@](C)(N)C3)[nH]c2n1` [Compound 2-173, 3-{4-[(3S)-3-amino-3-methylpyrrolidin-1-yl]-5-{5,7-dimethyl-1H-imidazo[4,5-b]pyridin-2-yl}pyridin-3-yl}benzonitrile], the EC50 was below 10 nM. Take `Cc1cc(C)c2[nH]c(-c3cncc(-c4ccc(F)c(C#N)c4)c3N3CC[C@](C)(N)C3)nc2n1` [Compound 2-174, 5-{4-[(3S)-3-amino-3-methylpyrrolidin-1-yl]-5-{5,7-dimethyl-1H-imidazo[4,5-b]pyridin-2-yl}pyridin-3-yl}-2-fluorobenzonitrile]: the EC50 was below 10 nM.

The same assay, now with this note: SST5 over SST2, class symbols.
Consider `Cc1ccnc2nc(-c3cncc(-c4ccc(F)c(C#N)c4)c3N3CCC(C)(N)C3)[nH]c12` (centres unmarked) [Compound 2-119, 5-[4-(3-amino-3-methylpyrrolidin-1-yl)-5-{7-methyl-1H-imidazo[4,5-b]pyridin-2-yl}pyridin-3-yl]-2-fluorobenzonitrile], for which the “Fold selectivity for SST5 vs SST2” value is recorded as “++ (++=100 to 499)”.

Staying with this assay, now noted: read-out: SST5 potency; inhibition of cAMP via human SST5 receptor; Table B.
As for `Cc1ccnc2nc(-c3cncc(-c4ccc(F)c(C#N)c4)c3N3CCC(C)(N)C3)[nH]c12` (centres unmarked) [Compound 2-119, 5-[4-(3-amino-3-methylpyrrolidin-1-yl)-5-{7-methyl-1H-imidazo[4,5-b]pyridin-2-yl}pyridin-3-yl]-2-fluorobenzonitrile], the EC50 was below 10 nM.
